Laboratory results from patent US11045519B2, “Arginine-rich polypeptide compositions and methods of using same” (UNM Rainforest Innovations, priority 2017, dated 2021).
pIC50: −log10 of the molar value. Entries after “also recorded” stand apart in the source; their conditions may differ.

Key:
HPV16 PsVs [1] = test: HPV16 PsV infection of CHO mutant cells; format: cell-based; details: 3 μM, 1 h pre-treatment, 24 h
Description: (§1) FIG. 7. HPV binding and infection of CHO mutant cells in the presence of polyR. CHO mutant pgsA-745 cells (GAG deficient) and CHO mutant pgsD-677 cells (HS deficient) were grown in Ham's F12 medium supplemented with 10% fetal bovine serum and 1% Glutamax (Invitrogen, Thermo Fisher Scientific, Inc., Carlsbad, Calif.). (A) Cells were incubated with 3 μM polyR in the medium for 30 minutes before adding HPV16 PsVs and incubating at 4° C. for one hour. After extensive washing with PBS, cells were lysed and analyzed for the content of L1, as described in FIG. 4A. (B) Semi-confluent CHO-pgsA were treated with 3 μM polyR for one hour prior to adding HPV16 PsVs. Infection was scored at 24 hours post infection as described in FIG. 1. (C) Semi-confluent CHO-pgsD cells were treated with 3 μM polyR for one hour prior to adding HPV16 PsVs. Infection was scored at 24 hours post infection as described in FIG. 1.
(§2) To test the effects of polyR on cells that differentially express heparan sulfate versus heparan sulfonated proteoglycans, like glycosaminoglycans (GAGs), genetically mutant clones of Chinese hamster ovary (CHO) cell lines were used. […] First, the effect of polyR on HPV16 PsV binding to these mutant cells was measured.

HPV16 PsVs [2] = test: Mouse cervicovaginal HPV16 PsV infection model (luciferase in vivo imaging); design: species or system BALB/c mice; details: 2 μM in 3% CMC, intravaginal, cytobrush abrasion, imaging 48 h after PsV, n=3
Source text: FIG. 11. PolyR inhibits HPV16 infectivity in vivo. (A). Six-week-old to eight-week-old female BALB/c mice were exposed to HPV16 PsVs transducing Luciferase (5×10^8 infection units (IU)/animal). (B). Percent of in vivo infectivity represents % of infection calculated from luciferase readouts from panel A. Error bars represents SD n=3. Luciferase raw data (average radiance photons/s/cm^2) of polyR-untreated mice is considered as 100%.
Until recently, in vivo animal studies on infectivity of HPV were problematic, because productive papillomavirus infection is species-restricted and tissue-restricted, and traditional models use animal papillomaviruses in closely related or native host species. However, a recently developed mouse model of cervicovaginal infection using HPV16 PsVs has overcome such restrictions (Roberts et al., 2007. Nature Medicine 13:857-861). In the original study, 3% carboxymethylcellulose (CMC) was used to mimic the viscosity of a typical vaginal gel and determined that disruption of genital epithelium by chemical (Nonoxynol-9) or mechanical (using cytobrush) injury is crucial for efficient HPV PsV infection. Nonoxynol-9 (N-9) is a highly toxic strong non-ionic detergent that disturbs the normal architecture of animal and human genital epithelium. […] The average radiance per mouse was measured in photons/s/cm^2/sr for a set region (of equal dimensions) among mice.

HPV16 PsVs [3] = test: Internalization of cell-bound HPV16 PsV into HaCaT cells (L1 immunoblot); format: cell-based; details: HPV-bound HaCaT cells incubated 4 h
Description: FIG. 8. PolyR reduces the internalization of cell membrane-bound HPV16 PsV. HaCaT cells were incubated with HPV16 PsVs for one hour at 4° C. Unbound virus was removed from the cells by incubation with 0.25% trypsin/5 mM EDTA for 15 minutes at 37° C. Cells were pelleted and washed several times with CM (to neutralize pH) and with ice-cold PBS before adding ice-cold 0.1 M sodium acetate buffer (pH 4.5) containing 0.5 M NaCl. After a two-minute incubation on ice, cells were washed three times with PBS and lysed with RIPA [50 mM Tris (pH 7.5), 0.1% SDS, 1% sodium deoxycholate, 150 mM NaCl, 1 mM EDTA, 1% Triton X-100, 1 mM sodium vanadate, 1 mM PMSF, 10 ng/ml leupeptin, 10 ng/ml aprotinin] buffer. Immuno-blotting was performed, and the L1 protein was detected using a HPV16 L1-specific mAb (Camvir-1, sc-47699, Santa Cruz Biotechnology, Inc., Dallas, Tex.).
To investigate the effect of polyR on the penetration of cell-bound virus into host cells, HPV-bound cells were incubated for four hours in the absence or presence of polyR. […] Immuno-blotting was performed, and the L1 protein was detected using a HPV16 L1 specific mAb (Camvir-1; Santa Cruz Biotechnology, Inc., Dallas, Tex.). As HPV16 L1 is proteolytically processed during cell entry, two forms of L1 (full-length 55 kDa and the 25 kDa processed form) were detected. […]

HPV16 PsVs [4] = test: HPV16 PsV binding to CHO mutant cells (L1 immunoblot); format: cell-based; details: 3 μM, 30 min pre-treatment
Description: as §1, §2

[5] = system: HPV16 pseudovirions (PsVs); test: HPV16 PsV luciferase infectivity assay, HaCaT cells pretreated with peptide; format: cell-based; details: 24 h
Description: HaCaT cells were cultured in complete growing medium (CM; Dulbecco's modified Eagle's medium nutrient mixture F-12 HAM (Sigma-Aldrich, St. Louis, Mo.)) supplemented with 10% fetal bovine serum (FBS), amino acids (Sigma-Aldrich, St. Louis, Mo.), 2 mM L-glutamine, 100 U/ml penicillin and 1 μg/ml streptomycin (Sigma-Aldrich, St. Louis, Mo.), as previously described (Patterson et al., 2005. J Virol 79:6838-6847). Semi-confluent cells were pretreated for 30 minutes with arginine-rich peptides dissolved in CM (6 μM gp91dstat, gp91dstat (scramble), R9, and TAT, or 3 polyR) before the exposure to HaCaT cells and 300 vge/cell HPV16 pseudovirions (PsVs) packaging a luciferase reporter plasmid. Infectivity was scored after 24 hours of incubation at 37° C. (i.e., post infection) by Lumat LB9501 (Berthold Technologies GmbH & Co KG, Bad Wildbad, Germany) equipment, using the luciferase assay kit (Promega, Madison, Wis.) according to manufacturer's specification. Raw data were normalized to total cellular protein concentration. Graph summarizes triplicate treatments; error bars represent SEM.
Fifty percent inhibitory concentration (IC50) of HPV16 PsV infection of HaCaT cells by the compounds. For generation of an inhibitory concentration 50 (IC50) curves, cells were pretreated with the indicated concentration of arginine-rich peptides prior to HPV16 PsV exposure. Infectivity was scored after 24 hours of incubation at 37° C. and the data from two independent duplicate experiments were pooled and analyzed using non-linear regression (curve fit) function of PRISM software (GraphPad Software, Inc., LaJolla, Calif.).
Semi-confluent HaCaT cells maintained in CM, were pretreated for one hour with PrS dissolved in CM at the 0-5.8 μM concentrations before exposure to HPV16 PsVs (350 vge/cell). Infectivity was scored after 24 hours of incubation at 37° C. using a luminometer (Lumat LB9501, Berthold GmbH & Co., Bad Wildbad, Germany) and luciferase assay (Promega, Madison, Wis.) according to manufacturer's specification. Raw data were normalized to total cellular protein concentration.
For generation of an inhibitory concentration 50 (IC50) curve for PrS inhibition, data from two independent duplicate experiments was pooled and analyzed using the non-linear regression (curve fit) function of PRISM (GraphPad Software, Inc., La Jolla, Calif.).
3 μM PrS incubated for one hour at room temperature with 2 mg/ml high or low molecular weight HA in CM, prior to the addition to HaCaT cells. 350 vge/cell HPV16 PsVs were used for infection of cells in the presence or absence of PrS or HA:PrS complex. Infection was scored after 24 hours as described in FIG. 12.
HaCaT cells were pretreated with 6 μM concentrations of gp91dstat, gp91dstat (scramble), R9, or TAT, or 3 μM polyR. After 30 minutes of incubation at 37° C., cells were infected with HPV16 pseudovirions (PsVs) at a dose of 300 viral genome equivalents (vge)/cell, and the relative infectivity was quantified after 24 hours compared to infection in untreated cells (FIG. 1). Each treatment was performed in triplicate.
To evaluate the anti-HPV activity of PrS, HaCaT cells, a keratinocyte-derived cell line, was used as a model for analysis of HPV infection. […]
Infections were initiated using Luciferase-expressing HPV16 PsVs that were produced, isolated, and quantified as described previously (Surviladze et al., 2012. PLoS Pathogens 8: e1002519; Campos S K and Ozbun M A, 2009. PloS One 4:e4463). […]

Substance: poly-L-arginine [polyR]
- reduction of HPV16 infection (HPV16 PsVs [1]; CHO pgsA-745 cells): 63%
- reduction of HPV16 infection (HPV16 PsVs [1]; CHO pgsD-677 cells): 92%
- reduction of infection in vivo (HPV16 PsVs [2]): 50%
- internalized L1 forms (55 kDa full-length, 25 kDa processed) (HPV16 PsVs [3]): decreased levels of 55 kDa L1 protein and increased amounts of the 25 kDa proteolytic processed L1 form
- virus internalization rate (sum of IDVs of 55 kDa and 25 kDa L1 bands) (HPV16 PsVs [3]): had no effect on the virus internalization rate
- HPV16 PsV binding (HPV16 PsVs [4]; CHO pgsA-745 cells (GAG deficient)): did not prevent HPV binding; also recorded: increased binding was observed
- HPV16 PsV binding (HPV16 PsVs [4]; CHO pgsD-677 cells (HS deficient)): did not prevent HPV binding
- inhibition of HPV16 PsV infection ([5]; 3 μM, 30 min pretreatment of HaCaT cells, 300 vge/cell): > 98%
- pIC50 ([5]; pretreatment before PsV exposure, two independent duplicate experiments, read-out: IC50 of HPV16 PsV infection of HaCaT cells): 7.72
